The record followed here is ChEMBL document CHEMBL5113376, “Antimalarial application of quinones: A recent update” (Eur J Med Chem, 2021).

For data set [1], the system named is Plasmodium falciparum. The data set is described as follows: Antimalarial activity against Plasmodium falciparum K14 incubated for 42 hrs in presence of 3H-hypoxanthine by top-count microbeta counter analysis. It counts as functional, organism-based.
Data set [2] concerns Plasmodium falciparum. The data set is described as follows: Antiplasmodial activity against chloroquine sensitive Plasmodium falciparum F-32 Tanzania incubated for 48 hrs. It counts as functional, organism-based.
Data set [3] relates to Plasmodium falciparum. Description: Antimalarial activity against Plasmodium falciparum W2 incubated for 24 hrs. It counts as functional, organism-based. Particulars: Plasmodium falciparum, W2, 24 h.
Data set [4] deals with Plasmodium falciparum. The data set is described as follows: Antimalarial activity against Plasmodium falciparum 3D7 infected in human erythrocytes. It counts as functional, organism-based. As to conditions: 3D7, Erythrocyte.
Data set [5] has as its system Plasmodium falciparum. The data set is described as follows: Antimalarial activity against Plasmodium falciparum Dd2 treated for 48 hrs followed by hypoxanthine addition. It counts as functional, organism-based. As to conditions: Dd2, 48 h.
Data set [6] concerns Plasmodium berghei. The data set is described as follows: In vivo antiplasmodial activity against Chloroquine susceptible Plasmodium berghei ANKA infected in CD-1 mouse assessed as decrease in parasitaemia at 30 to 50 mg/kg/day, ip relative to control. It counts as functional. Also on record: scale not given: the % may be the effect or the level left. Particulars: dose 30-50 mg/kg/day.

A short description of data set [7]: Cytotoxicity against HMEC-1 cells treated for 72 hrs by MTT assay. It counts as toxicity, cell-based. As to conditions: human. In general terms: Tetrazolium dyes change colour on reduction, which living cells bring about.
Data set [8] has as its system Plasmodium falciparum. The data set is described as follows: Antimalarial activity against chloroquine resistant Plasmodium falciparum W2 incubated for 72 hrs by spectrophotometric analysis. It counts as functional, organism-based. Particulars: W2, 72 h.
The subject of data set [9] is Plasmodium falciparum. The data set is described as follows: Antimalarial activity against chloroquine sensitive Plasmodium falciparum D10 incubated for 72 hrs by spectrophotometric analysis. As to conditions: D10, 72 h. It counts as functional, organism-based.
Data set [10] has as its system Plasmodium falciparum. The data set is described as follows: Antimalarial activity against Plasmodium falciparum D6. It counts as functional, organism-based.
The subject of data set [11] is Plasmodium berghei. The data set is described as follows: Antimalarial activity against Plasmodium berghei. It counts as functional, organism-based.
The test system of data set [12] is Plasmodium falciparum. The data set is described as follows: Antimalarial activity against Plasmodium falciparum W2. It counts as functional, organism-based.
Data set [13] concerns Plasmodium falciparum. Description: Antimalarial activity against Plasmodium falciparum TM91C235. It counts as functional, organism-based.
Data set [14] concerns Plasmodium falciparum. Description: Antimalarial activity against Plasmodium falciparum Dd2 by 96-well microtitre plate method based scintillation counting analysis. It counts as functional, organism-based.
In data set [15] the test system is Plasmodium berghei. Description: In vivo antiplasmodial activity against Plasmodium berghei ANKA infected in CD-1 mouse assessed as decrease in parasitaemia at 50 mg/kg, ip measured after 4 days relative to control. It counts as functional. More on the design: scale not given: the % may be the effect or the level left. Particulars: time 4 day.
The subject of data set [16] is Plasmodium falciparum. The data set is described as follows: Antiplasmodial activity against Chloroquine resistant Plasmodium falciparum FcB1 incubated for 48 hrs. It counts as functional, organism-based. Particulars: FcB1, 48 h.
The subject of data set [17] is Plasmodium falciparum. Description: Antimalarial activity against Plasmodium falciparum D10. It counts as functional, organism-based.
The nature of data set [18]: Cytotoxicity against HMEC-1 cells. It counts as toxicity, cell-based. As to conditions: human.
In data set [19] the test system is Plasmodium falciparum. The data set is described as follows: Antiplasmodial activity against Plasmodium falciparum Dd2 incubated for 48 hrs. It counts as functional, organism-based. As to conditions: Dd2, 48 h.
In data set [20] the test system is Plasmodium falciparum. The data set is described as follows: Antiplasmodial activity against Plasmodium falciparum 3D7 incubated for 48 hrs. It counts as functional, organism-based. As to conditions: 3D7, 48 h.
For data set [21], the system named is Plasmodium falciparum. The data set is described as follows: Antimalarial activity against Plasmodium falciparum K1 by 96-well microtitre plate method based scintillation counting analysis. It counts as functional, organism-based.
Data set [22] has as its system Plasmodium falciparum. The data set is described as follows: Antiplasmodial activity against Plasmodium falciparum K1. It counts as functional, organism-based.
Data set [23] is described as follows: Cytotoxicity against […] LLC-PK1 cells incubated for 24 hrs by MTT assay. It counts as toxicity, cell-based, Sus scrofa. Particulars: pig.
In a further data set the test system is A549. The data set is described as follows: Cytotoxicity against human A549 cells incubated for 24 hrs by MTT assay. It counts as functional.
A short description of data set [24]: Cytotoxicity against human MRC5 cells incubated for 24 hrs by MTT assay. It counts as toxicity, cell-based.
A further data set concerns HepG2. The data set is described as follows: Cytotoxicity against human HepG2 cells incubated for 24 hrs by MTT assay. It counts as functional.

In brackets after ≈: the same amount, converted by molar mass.

As to `CN(C)c1ccc(N2C(=O)C(Oc3ccc(Cl)cc3)C2c2ccc3c(c2)C(=O)c2ccccc2C3=O)cc1` (configuration not stated), in the data set on Plasmodium falciparum [1], the IC50 (usually the concentration that inhibits the measured activity by half) was 21 µM.

`COc1ccc(-n2cc(COC3=CC(=O)c4ccccc4C3=O)nn2)cc1F` returned an IC50 with Plasmodium falciparum [2] of 0.8 µM.

As for `CC1(C)OC2=C(CC1I)C(=O)c1ccccc1C2=O` (configuration not stated), in the data set with Plasmodium falciparum [3], the IC50 turned out to be 19.5 µM.

In the data set on Plasmodium falciparum [4], `O=C1C(O)=C(Cc2ccc([N+](=O)[O-])cc2)C(=O)c2ccccc21` registered an IC50 of 13.7 µM.

Molecule `CC1=C(Cc2ccc([N+](=O)[O-])cc2)C(=O)c2ccccc2C1=O` had an IC50 in the data set with Plasmodium falciparum [5] of 0.046 µM. Further, the Activity with Plasmodium berghei [6] came to 20.7%.

`O=C(Cn1cc(COC2=CC(=O)c3ccccc3C2=O)nn1)c1ccc(-c2ccccc2)cc1` returned an IC50 with Plasmodium falciparum [2] of 1.6 µM.

In data set [7], `COC1=C(Cc2ccccc2)C(=O)C2=C(NCCS2(=O)=O)C1=O` showed an IC50 at 72 h of 17.6 µM. Moreover, the values for the IC50 with Plasmodium falciparum [8] and in the data set with Plasmodium falciparum [9] were 0.7 µM and 0.6 µM, respectively.

On to `COc1ccc(N2C(=O)C(Oc3ccc(Cl)cc3Cl)C2c2ccc3c(c2)C(=O)c2ccccc2C3=O)cc1` (configuration not stated), for which the IC50 in the data set on Plasmodium falciparum [1] turned out to be 47 µM.

`CCCCCC[C@H](C)CC1=C(O)C(=O)c2ccccc2C1=O`: the IC50 in the data set with Plasmodium falciparum [10] was determined as 0.063 µM; with Plasmodium berghei [11], 0.0962 µM; in the data set with Plasmodium falciparum [12] it was 0.214 µM; in the data set with Plasmodium falciparum [13], 0.348 µM.

With `Cc1ccc2c(c1)C(=O)c1c(O)ccc(O)c1C2=O`, the IC50 with Plasmodium falciparum [14] was 1.63 µg/mL (≈ 6.41 µM).

Turning to `CC1=C(Cc2ccc(Br)cc2)C(=O)c2ccccc2C1=O`, half-maximal inhibition with Plasmodium falciparum [5] (IC50) required 0.046 µM. Further, in the data set with Plasmodium berghei [15], the Activity amounted to 35.8%.

In turn, `O=C1C2=C(C(=O)c3ccccc31)[C@H]1OCc3cc4c(cc3[C@H]1CO2)OCO4` registered an IC50 in the data set on Plasmodium falciparum [16] of 0.28 µM.

As for `COc1ccc(N2C(=O)C(Oc3ccc(Cl)cc3)C2c2ccc3c(c2)C(=O)c2ccccc2C3=O)cc1` (configuration not stated), the IC50 with Plasmodium falciparum [1] came out at 38 µM.

As to `O=C1c2ccccc2C(=O)c2cc(C3C(Oc4ccc5ccccc5c4)C(=O)N3c3cccc4ccccc34)ccc21` (configuration not stated), the IC50 in the data set with Plasmodium falciparum [1] was 39 µM.

As for `COC1=C(Cc2ccc(OC(F)(F)F)cc2)C(=O)C2=C(NCCS2(=O)=O)C1=O`, the IC50 with Plasmodium falciparum [17] was found to be 0.81 µM; in [18] it was 3.59 µM; in the data set on Plasmodium falciparum [12] it was 1.12 µM.

Take `C[C@@H](CCCCCC(F)(F)F)CC1=C(O)C(=O)c2ccccc2C1=O`: the IC50 in the data set on Plasmodium falciparum [10] worked out at 0.005 µM; with Plasmodium berghei [11], 0.017 µM; with Plasmodium falciparum [12], 0.065 µM; with Plasmodium falciparum [13], 0.084 µM.

For `CC1=C(Cc2ccc(F)cc2)C(=O)c2ccccc2C1=O`, the IC50 in the data set on Plasmodium falciparum [5] came to 0.046 µM. In addition, the Activity in the data set on Plasmodium berghei [6] is 20.7%.

For the molecule `CC1=C(Cc2ccc(C(F)(F)F)cc2)C(=O)c2ccccc2C1=O`, the Activity in the data set with Plasmodium berghei [6] is 20.7%.

Regarding `CCC1=C(OC)C(=O)C2=C(C1=O)S(=O)(=O)CCN2`, in data set [7], the IC50 at 72 h is > 100 µM. The results for the IC50 in the data set with Plasmodium falciparum [8] and in the data set on Plasmodium falciparum [9] were 2.37 µM and 2.45 µM, respectively.

Regarding `C/C=C/C1=C(O)C(=O)c2ccccc2C1=O`, the half-maximal inhibitory concentration (IC50) amounted to 1.6 µM with Plasmodium falciparum [19] and 1.2 µM with Plasmodium falciparum [20].

Turning to `COc1cc2c(cc1O)[C@H]1COC3=C(C(=O)c4ccccc4C3=O)[C@H]1O2`, the IC50 with Plasmodium falciparum [16] is ≥ 10 µM.

As to `Cc1cc2c(o1)C(=O)c1ccccc1C2=O`, the IC50 in the data set with Plasmodium falciparum [19] is 1.2 µM; in the data set on Plasmodium falciparum [20] it was 1.5 µM.

In the case of `CCc1cc2c(o1)C(=O)c1ccccc1C2=O`, the IC50 with Plasmodium falciparum [19] stood at 1.8 µM; with Plasmodium falciparum [20], 0.4 µM.

Consider `COc1cc(O)c(-c2c(C)cc(O)c3c2C(=O)c2ccc([C@H]4c5cccc(O)c5C(=O)c5c(O)cc(C)c(-c6c(O)cc(OC)c(C(C)=O)c6O)c54)c(O)c2C3=O)c(O)c1C(C)=O` (stereo in doubt; 11), for which inhibition in the data set on Plasmodium falciparum [21] (Plasmodium falciparum, K1) was half-maximal at 0.14 µM (IC50).

In the data set with Plasmodium falciparum [21], `COc1cc(O)c(-c2c(C)cc(O)c3c2C(=O)c2ccc([C@H]4c5cccc(O)c5C(=O)c5c(O)cc(C)c(-c6c(O)cc(OC)c(C(C)=O)c6O)c54)c(O)c2C3=O)c(O)c1C(C)=O` (stereo in doubt; 12) yielded an IC50 of 0.23 µM.

As to `O=C(O)c1ccc2c(n1)C(=O)C1=C(C2=O)S(=O)(=O)CCN1` [ACIDIATHIAZONE A], in the data set with Plasmodium falciparum [22], the IC50 is 3.3 µM.

Take `CC1(C)CCC2=C(O1)C(=O)c1ccccc1C2=O` [ALPHA-LAPACHONE]: the CC50 at 24 h in data set [23] and in data set [24] was 2.09 µM throughout. For the same molecule, the IC50 in the data set with Plasmodium falciparum [3] was determined as 15.8 µM. Further, the CC50 in the data set with A549 and in the data set on HepG2 was 2.09 µM in each case.

With `CC(C)=CCC1=C(O)C(=O)c2ccccc2C1=O` [LAPACHOL], the CC50 at 24 h in [23] and in [24] was ≥ 285 µM throughout. In the data set on Plasmodium falciparum [3], 80 µM corresponded to half-maximal inhibition (IC50). The CC50 in the data set on A549 and in the data set with HepG2 was ≥ 285 µM each time.

In turn, `CC1(C)CCC2=C(O1)c1ccccc1C(=O)C2=O` [LAPACHONE] came in with an IC50 with Plasmodium falciparum [3] of 20.5 µM. The half-maximal cytotoxic concentration (CC50) with A549 and in the data set with HepG2 was 2.09 µM in each case.
